Assays:
EGFR (WT) = EGFR (WT) (Homo sapiens (Human), UniProt P00533); assay: Omnia biochemical assay, EGFR-WT active enzyme; conditions: [EGFR-WT]=5 nM, [ATP]=15 uM, 30 min pre-incubation
Method: Kinase reactions were started with the addition of 45 μL of the ATP/Tyr-Sox peptide substrate mix and monitored every 71 seconds for 60 minutes at λex360/λem485 in a Synergy^4 plate reader from BioTek (Winooski, Vt.).
The compound numbers correspond to the compound numbers in Table 1.

WT EGFR (A431 cells) = WT EGFR (A431 cells) (Homo sapiens (Human), UniProt P00533); assay: Phospho-EGFR signaling immunoblot in A431 cells (WT EGFR); format: cell-based; conditions: 1 hr treatment, EGF stimulated, phospho-EGFR (Y1068)
Method: (§1) A431 human epidermoid carcinoma, H1975 human NSCLC and HCC827 human NSCLC adenocarcinoma cells were obtained from the American Type Culture Center (Manassas, Va.). A431 cells were grown in DMEM (Invitrogen, Carlsbad, Calif.) supplemented with 10% FBS (HyClone, South Logan, Utah) and 1% Penicillin-Streptomycin (P/S, Lonza, Walkersville, Md.).
(§2) All primary antibodies were obtained from Cell Signaling (Danvers, Mass.) and used at 1:1000. Secondary antibodies were used at 1:10,000. Goat anti-mouse IgG IRDye 800CW antibody was obtained from LiCor Biosciences (Lincoln, Nebr.) and goat anti-rabbit IgG Alexa Fluor 680 was obtained from Invitrogen.
(§3) Cells were grown in 12-well plates (Corning, Coring, N.Y.) to 90% confluence and then incubated in low-serum (0.1% FBS) media for 16-18 hr. […] A431 cells were then stimulated with 50 ng/ml EGF (Peprotech, Rocky Hill, N.J.) for 15 min. After treatment, cell monolayers were washed with cold PBS (Invitrogen) and immediately lysed by scrapping into 60 uL cold Cell Extraction Buffer (Invitrogen) supplemented with Complete Protease inhibitors (Roche, Indianapolis, Ind.) and PhosphoSTOP (Roche) phosphatase inhibitors.
(§4) Phospho-protein signals were quantitated using Odyssey Infrared Imaging (Li-Cor Biosciences).
(§5) To assess phosphor-EGFR signaling, blots were probed with rabbit anti-Phospho-EGFR (Y1068) and mouse total anti-EGFR antibodies. Phospho-EGFR signal was normalized to total EGFR expression for each sample. […] Normalized data was fitted using a sigmoidal curve analysis program (Graph Pad Prism version 5) with variable Hill slope to determine the EC50 values.
(§6) The compound numbers recited in Table 4 correspond to the compound numbers in Table 1.

[1] = molecular target: EGFR double mutation L858R/T790M (H1975 cells) (Homo sapiens (Human), UniProt P00533, L858R/T790M); assay: Phospho-EGFR signaling immunoblot in H1975 cells; format: cell-based; conditions: for EC50: H1975 cells, 1 hr treatment, phospho-EGFR (Y1068); for Ratio WT/mutant (H1975): signaling EC50 WT EGFR / H1975
Method: as §1, §2, §3, §4, §5, §6

[2] = test system: H1975 cells (EGFR L858R/T790M); assay: Cell proliferation (CellTiter Glo), H1975 cells; conditions: proliferation GI50 WT EGFR / H1975
[3] = test system: HCC827 cells (EGFR delE746-A750); assay: Cell proliferation (CellTiter Glo), HCC827 cells; conditions: proliferation GI50 WT EGFR / HCC827

| SMILES | IC50 (EGFR (WT)) [nM] | EC50 (WT EGFR (A431 cells)) [nM] | EC50 [1] [nM] | Ratio WT/mutant (H1975) [1] | Ratio WT/mutant (H1975) [2] | Ratio WT/mutant (HCC827) [3] |
| --- | --- | --- | --- | --- | --- | --- |
| C=CC(=O)Nc1cccc(Nc2nc(Nc3ccc(N4CCCN(C(=O)OC(C)(C)C)CC4)cc3OC)ncc2C(F)(F)F)c1 [Compound I-44, tert-butyl 4-(4-(4-(3-acrylamidophenylamino)-5-(trifluoromethyl)pyrimidin-2-ylamino)-3-methoxyphenyl)-1,4-diazepane-1-carboxylate] | 300 to 1000 | > 1000 | 500 to 1000 | >5 | >5 | >5 |
| C=CC(=O)Nc1cccc(Nc2nc(Nc3ccc(N4CCN(C(C)=O)CC4)cc3OC(F)(F)F)ncc2C(F)(F)F)c1 [Compound I-33, N-(3-(2-(4-(4-acetylpiperazin-1-yl)-2-(trifluoromethoxy)phenylamino)-5-(trifluoromethyl)pyrimidin-4-ylamino)phenyl)acrylamide] | 1 to 10 | > 1000 | 10 to 100 | >50 | >30 | >15 |
| C=CC(=O)Nc1cccc(Nc2nc(Nc3ccc(N4CCN(C(=O)CO)CC4)cc3OC)ncc2Cl)c1 [Compound I-12, N-(3-(5-chloro-2-(4-(4-(2-hydroxyacetyl)piperazin-1-yl)-2-methoxyphenylamino)pyrimidin-4-ylamino)phenyl)acrylamide] | 10 to 30 | > 1000 | > 1000 | >1 | >1 | >30 |
| C=CC(=O)Nc1cccc(Nc2nc(Nc3ccc(N4CCN(C(=O)CO)CC4)cc3OC)ncc2C(F)(F)F)c1 [Compound I-6, N-(3-(2-(4-(4-(2-hydroxyacetyl)piperazin-1-yl)-2-methoxyphenylamino)-5-(trifluoromethyl)pyrimidin-4-ylamino)phenyl)acrylamide] | 1 to 10 | > 1000 | 10 to 100 | >20 | >10 | >40 |
| C=CC(=O)Nc1cccc(Nc2nc(Nc3ccc(N4CCS(=O)(=O)CC4)cc3OC)ncc2C(F)(F)F)c1 [Compound I-49, N-(3-(2-(2-methoxy-4,4-dioxo-4-thiomorpholinophenylamino)-5-(trifluoromethyl)pyrimidin-4-ylamino)phenyl)acrylamide] | 1 to 10 | > 1000 | 10 to 100 | >20 | >10 | >25 |
| C=CC(=O)Nc1cccc(Nc2nc(Nc3ccc(N4CCN(C(C)=O)[C@H](C(=O)OC)C4)cc3OC)ncc2C(F)(F)F)c1 [Compound I-48, (S)-methyl 1-acetyl-4-(4-(4-(3-acrylamidophenylamino)-5-(trifluoromethyl)pyrimidin-2-ylamino)-3-methoxyphenyl)piperazine-2-carboxylate] | 10 to 30 | > 1000 | 10 to 100 | >50 | >10 | >15 |
| C=CC(=O)Nc1cccc(Nc2nc(Nc3ccc(N4CCN(C(C)=O)CC4)cc3OC)ncc2Br)c1 [Compound I-40, N-(3-(2-(4-(4-acetylpiperazin-1-yl)-2-methoxyphenylamino)-5-bromopyrimidin-4-ylamino)phenyl)acrylamide] | 10 to 30 | > 1000 | > 1000 | >1 | >5 | >10 |
| C=CC(=O)Nc1cccc(Nc2nc(Nc3ccc(N4CCN(C(=O)C(C)(C)C)CC4)cc3OC)ncc2C(F)(F)F)c1 [Compound I-34, N-(3-(2-(2-methoxy-4-(4-pivaloylpiperazin-1-yl)phenylamino)-5-(trifluoromethyl)pyrimidin-4-ylamino)phenyl)acrylamide] | 30 to 100 | > 1000 | 100 to 500 | >35 | >5 | >50 |
| C=CC(=O)Nc1cccc(Nc2nc(Nc3ccc(N4CCN(C(C)=O)CC4)cc3OC)ncc2Cl)c1 [Compound I-8, N-(3-(2-(4-(4-acetylpiperazin-1-yl)-2-methoxyphenylamino)-5-chloropyrimidin-4-ylamino)phenyl)acrylamide] | 10 to 30 | > 1000 | > 1000 | >1 | >1 | >20 |
| C=CC(=O)Nc1cccc(Nc2nc(Nc3ccc(N4CCCN(C(C)=O)CC4)cc3OC)ncc2C(F)(F)F)c1 [Compound I-7, N-(3-(2-(4-(4-acetyl-1,4-diazepan-1-yl)-2-methoxyphenylamino)-5-(trifluoromethyl)pyrimidin-4-ylamino)phenyl)acrylamide] | 10 to 30 | > 1000 | 100 to 500 | >5 | >1 | >10 |

Now from value to molecule, other results behind:

| IC50 (EGFR (WT)) [nM] | EC50 (WT EGFR (A431 cells)) [nM] | EC50 [1] [nM] | Ratio WT/mutant (H1975) [1] | SMILES | Ratio WT/mutant (H1975) [2] | Ratio WT/mutant (HCC827) [3] |
| --- | --- | --- | --- | --- | --- | --- |
| 10 to 30 | > 1000 | 100 to 500 | >40 | C=CC(=O)Nc1cccc(Oc2nc(Nc3ccc(N4CCN(S(C)(=O)=O)CC4)cc3OC)ncc2Cl)c1 [Compound I-26, N-(3-(5-chloro-2-(2-methoxy-4-(4-(methylsulfonyl)piperazin-1-yl)phenylamino)pyrimidin-4-yloxy)phenyl)acrylamide] | >1 | >35 |
| 1 to 10 | > 1000 | 500 to 1000 | >5 | C=CC(=O)Nc1cccc(Oc2nc(Nc3ccc(N4CCN(C(=O)CO)CC4)cc3OC)ncc2Cl)c1 [Compound I-3, N-(3-(5-chloro-2-(4-(4-(2-hydroxyacetyl)piperazin-1-yl)-2-methoxyphenylamino)pyrimidin-4-yloxy)phenyl)acrylamide] | >5 | >45 |
| 30 to 100 | > 1000 | 100 to 500 | >35 | C=CC(=O)Nc1cccc(Oc2nc(Nc3ccc(N4CCN(S(C)(=O)=O)CC4)cc3OC)ncc2C(F)(F)F)c1 [Compound I-22, N-(3-(2-(2-methoxy-4-(4-(methylsulfonyl)piperazin-1-yl)phenylamino)-5-(trifluoromethyl)pyrimidin-4-yloxy)phenyl)acrylamide] | >10 | >35 |
| 10 to 30 | > 1000 | 100 to 500 | >15 | C=CC(=O)Nc1cccc(Oc2nc(Nc3ccc(N4CCN(C(=O)CO)CC4)cc3OC)ncc2C(F)(F)F)c1 [Compound I-11, N-(3-(2-(4-(4-(2-hydroxyacetyl)piperazin-1-yl)-2-methoxyphenylamino)-5-(trifluoromethyl)pyrimidin-4-yloxy)phenyl)acrylamide] | >5 | >45 |
| 10 to 30 | > 1000 | 100 to 500 | >5 | C=CC(=O)Nc1cccc(Oc2nc(Nc3ccc(N4CCN(C(=O)NC)CC4)cc3OC)ncc2C(F)(F)F)c1 [Compound I-21, 4-(4-(4-(3-acrylamidophenoxy)-5-(trifluoromethyl)pyrimidin-2-ylamino)-3-methoxyphenyl)-N-methylpiperazine-1-carboxamide] | >1 | >20 |
| 1 to 10 | > 1000 | < 10 |  | C=CC(=O)Nc1cccc(Nc2nc(Nc3ccc(N4CCN(C(=O)CC)CC4)cc3OC)ncc2C(F)(F)F)c1 [Compound I-35, N-(3-(2-(2-methoxy-4-(4-propionylpiperazin-1-yl)phenylamino)-5-(trifluoromethyl)pyrimidin-4-ylamino)phenyl)acrylamide] | >10 | >25 |
